# System: ACHN cell line
# Experiment: drug screen of the SelleckChem kinase inhibitor library with and without 5 uM SU-329, Cell-Titer Glo after 5 days
# Assay type: cell-based
# Settings: kinase inhibitor at 200 nM with and without 5 uM SU329; ACHN cell line; 5 days; Cell-Titer Glo
row,Molecule,log2fc
1,C[C@@H]1CCN(C(=O)CC#N)C[C@@H]1N(C)c1ncnc2[nH]ccc12.O=C(O)CC(O)(CC(=O)O)C(=O)O [Tofacitinib (CP-690550) Citrate],0.3512
2,CSc1cccc(Nc2ncc3cc(-c4c(Cl)cccc4Cl)c(=O)n(C)c3n2)c1 [PD173955],−0.1932
3,CCS(=O)(=O)Nc1ccc2c(c1)/C(=C(/Nc1ccc(CN3CCCCC3)cc1)c1ccccc1)C(=O)N2 [Hesperadin],0.1006
4,O=C(Nc1cc(C(F)(F)F)cc(C(F)(F)F)c1)c1cc(Cl)ccc1O [IMD 0354],0.2086
5,COc1ccc(-c2ccc3c(N4CCOC[C@@H]4C)nc(N4CCOC[C@@H]4C)nc3n2)cc1CO [AZD8055],0.1024
6,CCS(=O)(=O)c1cccc(-c2cc(C(=O)NC3CCN(C)CC3)c(C)c3[nH]c4ncc(C)cc4c23)c1 [TAK-901],0.2818
7,COC(=O)Nc1ccc(-c2nc(N3CCOCC3)c3cnn(C4CCN(C(=O)OC)CC4)c3n2)cc1 [WYE-354],−1.143
8,C=CC(=O)Nc1cccc(Oc2nc(Nc3ccc(N4CCN(C)CC4)cc3OC)ncc2Cl)c1 [WZ4003],−0.1405
9,O=C1NC(=O)C(=Cc2ccc(-c3ccc(F)cc3)o2)S1 (stereo in doubt) [CAY10505],0.3828
10,C[C@@]1(C(=O)Nc2ccc(F)nc2)CCCN1c1nc(Nc2cc(C3CC3)n[nH]2)c2cccn2n1 [BMS-754807],−1.139
11,Clc1ccc(C2(c3ccc(-c4cn[nH]c4)cc3)CCNCC2)cc1 [AT7867],−0.935
12,CS(=O)(=O)N1CCc2c(-c3cnc(N)nc3)nc(N3CCOCC3)nc21 [CH5132799],−1.044
13,Cc1ccc(NC(=O)c2cccc(C(C)(C)C#N)c2)cc1Nc1ccc2ncn(C)c(=O)c2c1 [AZ 628],0.4319
14,"COCC(=O)NC/C=C/c1ccc2ncnc(Nc3ccc(Oc4ccc(C)nc4)c(C)c3)c2c1 [CP-724714, reference compound]",0.2836
15,CO[C@H]1C[C@@H]2CC[C@@H](C)[C@@](O)(O2)C(=O)C(=O)N2CCCC[C@H]2C(=O)O[C@H]([C@H](C)C[C@@H]2CC[C@H](n3cnnn3)[C@H](OC)C2)CC(=O)[C@H](C)/C=C(\C)[C@@H](O)[C@@H](OC)C(=O)[C@H](C)C[C@H](C)/C=C/C=C/C=C/1C [Zotarolimus (ABT-578)],−1.34
16,Cl.Cl.Clc1ccc(Nc2nnc(Cc3ccncc3)c3ccccc23)cc1 [Vatalanib (PTK787) 2HCl],−0.4289
17,O=c1ncn2nc(Sc3ccc(F)cc3F)ccc2c1-c1c(Cl)cccc1Cl [VX-745],−0.2953
18,CN1CCN(c2ccc(Nc3cc(-c4cccc(-n5ccc6cc(C7CC7)cc(F)c6c5=O)c4CO)cn(C)c3=O)nc2)CC1 [RN486],0.08695
19,CN(C)CCOc1ccc(-c2nc(-c3ccncc3)c(-c3ccc4c(c3)CC/C4=N\O)[nH]2)cc1 [SB590885],0.2113
20,Nc1ccc(C(=O)Nc2cccc(-c3nc(N4CCOCC4)c4oc5ncccc5c4n3)c2)cn1 [YM201636],−0.5268
21,Cn1cnc(N)c2ncnc1-2 [3-Methyladenine (3-MA)],0.3232
22,COc1ccc(-c2nc(N3CCOCC3)c3sc(CN(C)c4ncc(C(=O)NO)cn4)cc3n2)cn1 [CUDC-907],0.5895
23,CS(=O)(=O)CCNCc1ccc(-c2ccc3ncnc(Nc4ccc(OCc5cccc(F)c5)c(Cl)c4)c3c2)o1 [Lapatinib],0.9499
24,C[C@@H]1COCCN1c1cc(C2(S(C)(=O)=O)CC2)nc(-c2cccc3[nH]ccc23)n1 [AZ20],−0.01528

row,Molecule,log2fc
1,CCOC(=O)c1cnc2ccc(-c3cncc(NS(=O)(=O)c4ccccc4)c3)cn12 [HS-173],0.4717
2,"Cc1nc(Nc2ncc(C(=O)Nc3c(C)cccc3Cl)s2)cc(N2CCN(CCO)CC2)n1 [Dasatinib, dasatinib, reference compound]",−0.196
3,Cn1cc(/C=C2\C(=O)Nc3cccnc32)c2ccccc21 [GW441756],−0.09333
4,Nc1nc(N)c2nc(-c3cccc(O)c3)c(-c3cccc(O)c3)nc2n1 [TG100-115],0.2334
5,CCn1c(N)c(C(=O)NC)c(=O)c2ccc(C#C[C@@](C)(O)COC)nc21 [SAR131675],0.374
6,COc1cc(Nc2ncc(F)c(Nc3ccc4c(n3)NC(=O)C(C)(C)O4)n2)cc(OC)c1OC [R406 (free base)],0.8334
7,Nc1nc(Nc2ccc(S(N)(=O)=O)cc2)nn1C(=O)c1c(F)cccc1F [JNJ-7706621],0.3857
8,NCC(=O)Nc1ccc(-n2nc(C(F)(F)F)cc2-c2ccc3c(ccc4ccccc43)c2)cc1 [OSU-03012 (AR-12)],0.7911
9,CNC(=O)c1ccc(C)c(-n2c(C)cc(OCc3ccc(F)cc3F)c(Br)c2=O)c1 [PH-797804],−0.5678
10,"CN(C)C/C=C/C(=O)Nc1cc2c(Nc3ccc(F)c(Cl)c3)ncnc2cc1O[C@H]1CCOC1 [Afatinib (BIBW2992), afatinib, reference compound]",0.04313
11,C[C@@H]1COC(Nc2ccc3ncnc(Nc4ccc(OCc5nccs5)c(Cl)c4)c3c2)=N1 [Varlitinib],0.7999
12,"CC[C@H](Nc1ncnc2[nH]cnc12)c1nc2cccc(F)c2c(=O)n1-c1ccccc1 [Idelalisib (CAL-101, GS-1101)]",0.09838
13,Cl.Cl.NC1(c2ccc(-c3nc4ccn5c(=O)[nH]nc5c4cc3-c3ccccc3)cc2)CCC1 [MK-2206 2HCl],−0.1575
14,COc1cc2c(Oc3ccc(NC(=O)C4(C(=O)Nc5ccc(F)cc5)CC4)cc3F)ccnc2cc1OCCCN1CCOCC1 [Foretinib (GSK1363089)],−0.1359
15,CN1CCCN(C(=O)c2cccc(-c3ccc(/C=C4/C(=O)Nc5ccc(Cl)cc54)o3)c2)CC1.Cl [CX-6258 HCl],−0.355
16,CCN1CCN(C(=O)Cc2ccc(Nc3ncc(F)c(Nc4ccc(C(=O)Nc5ccccc5Cl)cc4)n3)cc2)CC1 [Aurora A Inhibitor I],−0.1962
17,CN1CC[C@H](c2c(O)cc(O)c3c(=O)cc(-c4ccccc4Cl)oc23)[C@H](O)C1 [Flavopiridol (Alvocidib)],1.05
18,C[C@H]1[C@H](C)CC[C@]2(C(=O)O)CC[C@]3(C)C(=CC[C@@H]4[C@@]5(C)C[C@@H](O)[C@H](O)[C@@](C)(CO)[C@@H]5CC[C@]43C)[C@H]12 [Asiatic Acid],0.1505
19,CCOc1ccn(-c2ccc(F)cc2)c(=O)c1C(=O)Nc1ccc(Oc2ccnc(N)c2Cl)c(F)c1 [BMS-777607],−0.5095
20,Oc1ccc(-c2nc(-c3ccc(F)cc3)c(-c3ccncc3)[nH]2)cc1 [SB202190 (FHPI)],−0.3986
21,CN1CCN(Cc2ccc(-c3cnc4[nH]cc(-c5ccc6[nH]ccc6c5)c4c3)cc2)CC1 [URMC-099],0.3515
22,C=CC(=O)Nc1ccc2ncnc(Nc3cccc(Br)c3)c2c1 [PD168393],0.5991
23,COc1cc2ncnc(Nc3ccc(O)c(Br)c3)c2cc1OC [WHI-P154],0.511
24,COc1cc(CCc2cc(NC(=O)c3ccc(N4CC(C)NC(C)C4)cc3)n[nH]2)cc(OC)c1 (stereo not shown) [AZD4547],0.4725

row,Molecule,log2fc
1,Cc1nc(N)sc1-c1ccnc(Nc2ccc(N3CCOCC3)cc2)n1 [CYC116],−0.814
2,Cc1[nH]nc2ccc(-c3cncc(OC[C@@H](N)Cc4ccccc4)c3)cc12 [A-674563],−0.6438
3,"COc1cc(F)c(F)c(Nc2ccc(I)cc2F)c1NS(=O)(=O)C1(C[C@H](O)CO)CC1 [Refametinib (RDEA119, Bay 86-9766)]",0.4867
4,Cc1c(NC(=O)c2ccc(C(C)(C)C)cc2)cccc1-c1cn(C)c(=O)c(Nc2ccc(C(=O)N3CCOCC3)cc2)n1 [CGI1746],0.8939
5,Cc1cc(C)c(/C=C2\C(=O)Nc3ccccc32)[nH]1 [Semaxanib (SU5416)],−0.8277
6,"CN1CCN(c2ccc3nc(-c4c(N)c5c(F)cccc5[nH]c4=O)[nH]c3c2)CC1 [Dovitinib (TKI-258, CHIR-258)]",0.4746
7,KN-62,−0.07258
8,Cc1cc(Nc2nc(N[C@@H](C)c3ncc(F)cn3)ncc2Cl)[nH]n1 [AZD1480],0.4813
9,O=C(/C=C/c1ccc2ccccc2n1)c1ccncc1 [PFK15],−0.9312
10,Cc1cc(N2CCOCC2)cc2[nH]c(-c3c(NC[C@@H](O)c4cccc(Cl)c4)cc[nH]c3=O)nc12 [BMS-536924],0.4161
11,CNc1nc(Nc2cn(C(C)(C)C#N)nc2C)ncc1C(F)(F)F [GNE-0877],0.3098
12,O=c1c(-c2ccc(O)cc2)coc2cc(O)cc(O)c12 [Genistein],0.05262
13,CNC(=O)c1cc(COc2nnc(Nc3ccc(Cl)cc3)c3ccoc23)ccn1 [Telatinib],0.2479
14,Cc1cc2c(F)c(Oc3ncnn4cc(OC[C@@H](C)OC(=O)[C@H](C)N)c(C)c34)ccc2[nH]1 [Brivanib Alaninate (BMS-582664)],0.04321
15,C=CC(=O)Nc1cc(Nc2nccc(-c3cn(C)c4ccccc34)n2)c(OC)cc1N(C)CCN(C)C [Osimertinib (AZD9291)],−0.01286
16,CCCCOc1c(C(=O)c2c(F)cc(C)cc2F)c[nH]c2nncc1-2 [BMS-265246],−0.1077
17,"CCN1CCN(Cc2ccc(-c3cc4c(N[C@H](C)c5ccccc5)ncnc4[nH]3)cc2)CC1 [AEE788 (NVP-AEE788), AEE788, reference compound]",0.07427
18,CCN(CCO)CCCOc1ccc2c(Nc3cc(CC(=O)Nc4cccc(F)c4)[nH]n3)ncnc2c1 [Barasertib (AZD1152-HQPA)],0.7387
19,O=C(NCCCNc1nc(Nc2cccc(NC(=O)N3CCCC3)c2)ncc1I)c1cccs1 [BX-795],−0.3476
20,CO[C@H]1C[C@@H]2CC[C@@H](C)[C@@](O)(O2)C(=O)C(=O)N2CCCC[C@H]2C(=O)O[C@H]([C@H](C)C[C@@H]2CC[C@@H](O)[C@H](OC)C2)CC(=O)[C@H](C)/C=C(\C)[C@@H](O)[C@@H](OC)C(=O)[C@H](C)C[C@H](C)/C=C/C=C/C=C/1C [Rapamycin (Sirolimus)],−1.552
21,"C=CC(=O)Nc1cccc(Nc2nc(Nc3ccc(N4CCN(C(C)=O)CC4)cc3OC)ncc2C(F)(F)F)c1 [Rociletinib (CO-1686, AVL-301)]",−0.001899
22,Nc1ncnc2c1c(-c1cccc(OCc3ccccc3)c1)cn2C1CC(CN2CCC2)C1 (stereo not shown) [NVP-AEW541],0.2179

# — patent publication US12195490B2, “STRAD-binding agents and uses thereof” (The Regents of the University of California, priority 2020, dated 2025)
